System: rat pituitary cells
Experiment: in vitro release of growth hormone (ir GH by radioimmunoassay) from cultured rat pituitary cells, side-by-side with hGRF(1-44)-NH2
Assay type: cell-based
Description: To determine the effectiveness of the peptide to promote the release of growth hormone, in vitro assays are carried out using synthetic hGRF(1-44)-NH2 in side-by-side comparison with equimolar concentrations of the extracted and purified bGRF(1-44) of Example II. hGRF thus serves as a GRF Reference Standard having a known effectiveness to promote the release of growth hormone from rat pituitary cells. Cultures are used which include cells of rat pituitary glands removed some four to five days previously. Both cultures of a defined standard medium and cultures which are considered optimal for the secretion of growth hormone are used for the comparative testing, in the general manner described in Brazeau, et al. Regulatory Peptides, 1, 255, 1981. Incubation with the substance to be tested is carried out for 3 to 4 hours, and aliquots of the culture medium are removed and processed to measure their contents in immunoreactive GH(ir GH) by a well-characterized radioimmunoassay.

[1] = equimolar ratios, rat pituitary cell cultures, incubation 3 to 4 hours

SMILES: CC[C@H](C)[C@H](NC(=O)[C@H](C)NC(=O)[C@H](CC(=O)O)NC(=O)[C@H](C)NC(=O)[C@@H](N)Cc1ccc(O)cc1)C(=O)N[C@@H](Cc1ccccc1)C(=O)N[C@H](C(=O)N[C@@H](CC(N)=O)C(=O)N[C@@H](CO)C(=O)N[C@@H](Cc1ccc(O)cc1)C(=O)N[C@@H](CCCNC(=N)N)C(=O)N[C@@H](CCCCN)C(=O)N[C@H](C(=O)N[C@@H](CC(C)C)C(=O)NCC(=O)N[C@@H](CCC(N)=O)C(=O)N[C@@H](CC(C)C)C(=O)N[C@@H](CO)C(=O)N[C@@H](C)C(=O)N[C@@H](CCCNC(=N)N)C(=O)N[C@@H](CCCCN)C(=O)N[C@@H](CC(C)C)C(=O)N[C@@H](CC(C)C)C(=O)N[C@@H](CCC(N)=O)C(=O)N[C@@H](CC(=O)O)C(=O)N[C@H](C(=O)N[C@@H](CCSC)C(=O)N[C@@H](CC(N)=O)C(=O)N[C@@H](CCCNC(=N)N)C(=O)N[C@@H](CCC(N)=O)C(=O)N[C@@H](CCC(N)=O)C(=O)NCC(=O)N[C@@H](CCC(=O)O)C(=O)N[C@@H](CCCNC(=N)N)C(=O)N[C@@H](CC(N)=O)C(=O)N[C@@H](CCC(N)=O)C(=O)N[C@@H](CCC(=O)O)C(=O)N[C@@H](CCC(N)=O)C(=O)NCC(=O)N[C@@H](C)C(=O)N[C@@H](CCCCN)C(=O)N[C@H](C(=O)N[C@@H](CCCNC(=N)N)C(=O)N[C@@H](CC(C)C)C(N)=O)C(C)C)[C@@H](C)CC)C(C)C)[C@@H](C)O [bGRF(1-44)]
- intrinsic biological activity (GH release) compared with synthetic hGRF(1-44)-NH2 [1]: full intrinsic biological activity
- potency (GH release) compared with synthetic hGRF(1-44)-NH2 [1]: close to the same potency
- intrinsic activity relative to hGRF(1-44)-NH2 (multiple doses factorial design experiments): same intrinsic activity
- specific activity relative to hGRF(1-44)-NH2 (multiple doses factorial design experiments, % of hGRF(1-44)-NH2, confidence limits of 54-93%): about 70%

Reference: patent US4585756A, “Bovine GRF” (The Salk Institute for Biological Studies, priority 1983, dated 1986)
